Test results reported in ChEMBL document CHEMBL4020731, “Dimeric isoxazolyl-1,4-dihydropyridines have enhanced binding at the multi-drug resistance transporter” (Bioorg Med Chem, 2017).

Legend:
[1] = target: T1, ATP-dependent translocase ABCB1 (Homo sapiens, UniProt P08183); assay: Inhibition of MDR-1 in human Caco-2 cells after 30 mins by calcein-AM dye based fluorescence assay; assay type: cell-based
[2] = target: T1, ATP-dependent translocase ABCB1; assay: (§1) Inhibition of MDR-1 in human Caco-2 cells at 10 uM after 30 mins by calcein-AM dye based fluorescence assay relative to cyclosporin; assay type: cell-based; conditions: 0.5 h, 10 µM
[3] = target: Metabotropic glutamate receptor 5 (Rattus norvegicus) (UniProt P31424); assay: Displacement of [3H]MPEP from rat brain mGluR5 expressed in CHO cells by scintillation counting method; assay type: cell-based
Sequence of Metabotropic glutamate receptor 5 (Rattus norvegicus) (P31424 21-1203 limits assumed): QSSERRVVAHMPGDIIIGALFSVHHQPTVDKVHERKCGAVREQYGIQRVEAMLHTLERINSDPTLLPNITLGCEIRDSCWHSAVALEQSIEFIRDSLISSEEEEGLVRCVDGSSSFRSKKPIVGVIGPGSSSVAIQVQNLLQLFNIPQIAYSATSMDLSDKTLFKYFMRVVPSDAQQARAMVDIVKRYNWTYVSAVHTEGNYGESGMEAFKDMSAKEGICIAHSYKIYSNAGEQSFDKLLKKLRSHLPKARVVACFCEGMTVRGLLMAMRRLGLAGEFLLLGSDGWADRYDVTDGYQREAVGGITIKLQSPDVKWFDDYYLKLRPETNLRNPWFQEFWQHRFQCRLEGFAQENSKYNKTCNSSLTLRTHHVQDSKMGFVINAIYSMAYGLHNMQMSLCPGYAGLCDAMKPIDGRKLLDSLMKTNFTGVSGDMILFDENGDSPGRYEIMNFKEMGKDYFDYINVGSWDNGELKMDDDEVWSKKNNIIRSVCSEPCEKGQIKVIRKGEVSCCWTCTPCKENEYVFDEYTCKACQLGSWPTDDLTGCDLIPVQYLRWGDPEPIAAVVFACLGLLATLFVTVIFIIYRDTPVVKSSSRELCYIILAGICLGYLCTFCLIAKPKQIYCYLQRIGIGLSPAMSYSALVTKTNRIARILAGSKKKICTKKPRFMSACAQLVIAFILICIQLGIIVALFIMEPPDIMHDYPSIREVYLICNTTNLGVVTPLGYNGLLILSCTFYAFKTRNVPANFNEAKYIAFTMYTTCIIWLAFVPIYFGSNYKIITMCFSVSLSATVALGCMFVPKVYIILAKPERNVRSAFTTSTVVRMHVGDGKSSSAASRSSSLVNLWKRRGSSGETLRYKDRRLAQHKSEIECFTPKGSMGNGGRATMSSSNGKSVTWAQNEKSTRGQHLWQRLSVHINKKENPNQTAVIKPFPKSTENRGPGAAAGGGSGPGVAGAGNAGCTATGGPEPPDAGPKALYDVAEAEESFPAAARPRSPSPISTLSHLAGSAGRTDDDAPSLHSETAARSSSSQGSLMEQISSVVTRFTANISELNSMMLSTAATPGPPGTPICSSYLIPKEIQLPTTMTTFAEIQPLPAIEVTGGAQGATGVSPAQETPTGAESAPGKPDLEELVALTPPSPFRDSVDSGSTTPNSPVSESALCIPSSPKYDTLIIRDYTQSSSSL

[4] = target: Voltage-gated L-type calcium channel (Homo sapiens, UniProt Q13936+Q13698+Q01668+O60840); assay: Displacement of [3H]PN-200110 from voltage-dependent L-type calcium channel (unknown origin) by scintillation counting method
[5] = target: MDR-1 (P-glycoprotein, ABCB1) (Homo sapiens, UniProt P08183); assay: as §1; assay type: cell-based; conditions: Caco-2 cells, probe calcein-AM
Sequence of MDR-1 (P-glycoprotein, ABCB1) (P08183 whole entry): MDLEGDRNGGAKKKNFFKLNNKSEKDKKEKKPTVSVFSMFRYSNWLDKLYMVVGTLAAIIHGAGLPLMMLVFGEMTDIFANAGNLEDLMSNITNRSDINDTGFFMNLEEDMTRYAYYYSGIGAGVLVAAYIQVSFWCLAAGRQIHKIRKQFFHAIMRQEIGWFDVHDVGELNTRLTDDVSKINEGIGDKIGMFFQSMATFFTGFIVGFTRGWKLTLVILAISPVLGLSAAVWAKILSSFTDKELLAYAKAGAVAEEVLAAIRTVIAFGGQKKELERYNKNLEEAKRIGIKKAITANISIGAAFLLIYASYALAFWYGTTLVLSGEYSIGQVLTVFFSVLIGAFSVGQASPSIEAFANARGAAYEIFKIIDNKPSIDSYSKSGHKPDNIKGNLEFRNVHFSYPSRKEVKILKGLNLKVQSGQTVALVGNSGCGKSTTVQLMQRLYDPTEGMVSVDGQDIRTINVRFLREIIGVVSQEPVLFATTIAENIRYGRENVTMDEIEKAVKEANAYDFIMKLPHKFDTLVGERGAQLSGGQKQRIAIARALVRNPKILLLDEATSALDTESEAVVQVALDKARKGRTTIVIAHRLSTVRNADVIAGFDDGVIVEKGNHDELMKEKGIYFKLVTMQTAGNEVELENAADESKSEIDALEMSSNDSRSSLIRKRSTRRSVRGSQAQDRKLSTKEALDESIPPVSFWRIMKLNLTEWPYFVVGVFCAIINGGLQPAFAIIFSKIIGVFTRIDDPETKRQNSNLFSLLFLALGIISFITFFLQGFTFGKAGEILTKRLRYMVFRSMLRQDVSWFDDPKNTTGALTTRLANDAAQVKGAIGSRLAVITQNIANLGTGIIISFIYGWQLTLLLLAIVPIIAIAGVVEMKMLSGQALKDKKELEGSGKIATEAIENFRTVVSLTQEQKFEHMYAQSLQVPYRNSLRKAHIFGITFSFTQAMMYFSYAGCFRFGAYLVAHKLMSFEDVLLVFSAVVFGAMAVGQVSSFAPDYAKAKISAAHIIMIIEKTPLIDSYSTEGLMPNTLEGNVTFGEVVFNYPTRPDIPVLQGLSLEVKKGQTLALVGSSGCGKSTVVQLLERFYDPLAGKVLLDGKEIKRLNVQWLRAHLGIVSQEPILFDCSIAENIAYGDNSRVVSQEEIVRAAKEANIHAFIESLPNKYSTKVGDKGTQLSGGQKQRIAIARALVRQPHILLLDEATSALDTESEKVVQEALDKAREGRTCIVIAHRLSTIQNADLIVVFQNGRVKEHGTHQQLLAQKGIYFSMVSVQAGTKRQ

T1 sequence (P08183 whole entry): as above

Row | Compound | IC50 [1] | inhibition (INH) [2] | Ki [3] | IC50 [4] | inhibition at 0.5 h, 10 µM [5] | pIC50 [4]
1 | CCOC(=O)C1=C(C)NC(C)=C(C(=O)OCc2cn(CCOCCOCCOCCn3cc(COC(=O)C4=C(C)NC(C)=C(C(=O)OCC)C4c4c(-c5ccc(Br)cc5)noc4C)nn3)nn2)C1c1c(-c2ccc(Br)cc2)noc1C (stereo not given) | 3230 nM |  | 546 nM | 516 nM | 11.6% | 
2 | CCOC(=O)C1=C(C)NC(C)=C(C(=O)OCc2cn(CCOCCOCCOCCOCCOCCn3cc(COC(=O)C4=C(C)NC(C)=C(C(=O)OCC)C4c4c(-c5ccccc5Br)noc4C)nn3)nn2)C1c1c(-c2ccccc2Br)noc1C (stereo not given) | 2860 nM |  | 4860 nM | > 10000 nM | 17.7% | 
3 | CCOC(=O)C1=C(C)NC(C)=C(C(=O)OCC)C1c1c(-c2ccccc2Br)noc1C | > 10000 nM |  | 1520 nM | 909 nM | -12% | 
4 | CCOC(=O)C1=C(C)NC(C)=C(C(=O)OCc2cn(CCc3ccccc3)nn2)C1c1c(-c2ccc(Br)cc2)noc1C (stereo not given) | 1640 nM |  | 1970 nM | 127 nM | 108% | 
5 | CCOC(=O)C1=C(C)NC(C)=C(C(=O)OCc2cn(CCOCCOCCOCCOCCOCCn3cc(COC(=O)C4=C(C)NC(C)=C(C(=O)OCC)C4c4c(-c5ccccc5)noc4C)nn3)nn2)C1c1c(-c2ccccc2)noc1C (stereo not given) | > 10000 nM |  | > 10000 nM | > 10000 nM | 20.4% | 
6 | CCOC(=O)c1c(C)nc(C)c(C(=O)OCC)c1-c1c(-c2ccccc2)noc1C | > 10000 nM |  | > 10000 nM | > 10000 nM | 36.9% | 
7 | CCOC(=O)C1=C(C)NC(C)=C(C(=O)OCC)C1c1c(-c2ccc(Br)cc2)noc1C | 3100 nM |  | > 10000 nM | 36 nM | 58.4% | 7.44

These reach a lower IC50 [1]. Values come first.

Row | IC50 [1] | inhibition (INH) [2] | Ki [3] | IC50 [4] | inhibition at 0.5 h, 10 µM [5] | pIC50 [4] | Compound
8 | 1300 nM | 150.8% | 8640 nM | 3766 nM |  |  | CCOC(=O)C1=C(C)NC(C)=C(C(=O)OCc2cn(CCOCCOCCOCCOCCOCCn3cc(COC(=O)C4=C(C)NC(C)=C(C(=O)OCC)C4c4c(-c5cccc(Br)c5)noc4C)nn3)nn2)C1c1c(-c2cccc(Br)c2)noc1C (stereo not given)
9 | 1390 nM | 172.6% | 193 nM | 2706 nM |  |  | CCOC(=O)C1=C(C)NC(C)=C(C(=O)OCc2cn(CCOCCOCCOCCOCCOCCn3cc(COC(=O)C4=C(C)NC(C)=C(C(=O)OCC)C4c4c(-c5ccc(Br)cc5)noc4C)nn3)nn2)C1c1c(-c2ccc(Br)cc2)noc1C (stereo not given)
10 | 510 nM |  | > 10000 nM | 208 nM | 102% |  | CCOC(=O)C1=C(C)NC(C)=C(C(=O)OCC)C1c1c(-c2cccc(Br)c2)noc1C
11 | 1450 nM |  | 933 nM | 603 nM | 41.9% |  | CCOC(=O)C1=C(C)NC(C)=C(C(=O)OCc2cn(CCOCCOCCn3cc(COC(=O)C4=C(C)NC(C)=C(C(=O)OCC)C4c4c(-c5ccc(Br)cc5)noc4C)nn3)nn2)C1c1c(-c2ccc(Br)cc2)noc1C (stereo not given)
